Here are results for 4 compounds from patent US20020028805A1, “Methods of inhibiting uterotrophic effects of estrogenic agents” (American Home Products Corporation, priority 2000, published 2002).

“Also recorded” adds a separate entry of the source.

This experiment has as its system immature rat uterus. The experiment can be described thus: 3-day uterine model: uterine wet weight in immature rats. As to conditions: for Effect on ethinyl estradiol induced uterine wet weight increase (in words): 100 μg in combination with 0.5 μg ethinyl estradiol; for Effect on ethinyl estradiol induced uterine wet weight increase (in words) / Effect on raloxifene induced uterine stimulation (in words): three days; for % increase weight (vs. control) / Mean Wet Weight: 3 days; for Effect on raloxifene induced uterine stimulation (in words): co-administered with raloxifene (10 μg; 1 μmg [sic], ~0.2 mg/kg), 1-100 μg, 0.2 mg/kg; for Agonist effect on uterine wet weight (in words) / Increase in uterine wet weight over control: compound alone; for Agonist effect on uterine wet weight (in words): 10 and 100 μg/rat, three days of treatment, 1-way ANOVA; for Increase in uterine wet weight over control: for TSE-424 the highest increase seen.

Where [1] appears, read: Experiment No. 1, 10 μg alone, s.c.
Where [2] appears, read: Experiment No. 1, 100 μg + EE (0.5 μg ethinyl estradiol), s.c.
Where [3] appears, read: Experiment No. 1, 100 μg alone, s.c.
Setting [4] is: Experiment No. 2, 1 μg + Raloxifene 10 μg.
Setting [5] is: Experiment No. 2, 10 μg + Raloxifene 10 μg.
The mark [6] stands for this setting: Experiment No. 2, 10 μg alone, s.c.
Where [7] appears, read: Experiment No. 2, 50 μg + Raloxifene 10 μg.
The mark [8] stands for this setting: Experiment No. 2, 100 μg + Raloxifene 10 μg.
Where [9] appears, read: Experiment No. 2, 100 μg alone, s.c.
The mark [10] stands for this setting: Experiment No. 4, 10 μg alone, s.c.
The mark [11] stands for this setting: Experiment No. 4, 100 μg alone, s.c.
The mark [12] stands for this setting: Experiment No. 3, 10 μg alone, s.c.
Where [13] appears, read: Experiment No. 3, 100 μg + EE (0.5 μg ethinyl estradiol), s.c.
[14] abbreviates: Experiment No. 3, 100 μg alone, s.c.
The mark [15] stands for this setting: Experiment No. 4, 1 μg + Raloxifene 10 μg.
[16] abbreviates: Experiment No. 4, 10 μg + Raloxifene 10 μg.
Setting [17] is: Experiment No. 4, 50 μg + Raloxifene 10 μg.
The mark [18] stands for this setting: Experiment No. 4, 100 μg + Raloxifene 10 μg.

Consider `Cc1c(-c2ccc(O)cc2)n(Cc2ccc(OCCN3CCCCC3)cc2)c2ccc(O)cc12` [ERA-923, 2-(4-Hydroxy-phenyl)-3-methyl-1-(4-(2-piperidin-1-yl-ethoxy)-benzyl]-1H-indol-5-ol], for which the “Effect on ethinyl estradiol induced uterine wet weight increase (in words)” value was “reduced ethinyl estradiol induced wet weight increases to control values; also recorded: reduced the increased wet weight stimulated by ethinyl estradiol to control”, the “Effect on raloxifene induced uterine stimulation (in words)” value is reported as “antagonized the uterine stimulation; also recorded: reduced to control values or less at all doses except for 1 μg” and the “Agonist effect on uterine wet weight (in words)” value (from here on “Agonist effect”) is “neither ERA-923 nor TSE-424 statistically increased uterine wet weight; also recorded: neither ERA-923 (Experiment No.1) nor TSE-424 (Experiment No. 3) treatments resulted in a statistical increase in uterine wet weight”. Besides, under setting [1], the “% increase weight (vs. control)” value was determined as 129.8% and the “Mean Wet Weight” value was 39.9 mg. Further, under setting [2], the “% increase weight (vs. control)” value is 79.1% and the “Mean Wet Weight” value was 24.3 mg. Besides, under setting [3], the “% increase weight (vs. control)” value is reported as 89.3% and the “Mean Wet Weight” value was found to be 27.5 mg. For the same compound, under setting [4], the “% increase weight (vs. control)” value was 144.4% and the “Mean Wet Weight” value amounted to 38.7 mg. Further, under setting [5], the “% increase weight (vs. control)” value amounted to 100.8% and the “Mean Wet Weight” value was determined as 27.0 mg. Under setting [6], the “% increase weight (vs. control)” value is on record as 93.5% and the “Mean Wet Weight” value is 25.1 mg. Besides, under setting [7], the “% increase weight (vs. control)” value stood at 81.6% and the “Mean Wet Weight” value is 21.9 mg. Also, under setting [8], the “% increase weight (vs. control)” value is listed as 81.6% and the “Mean Wet Weight” value is 21.9 mg. Moreover, under setting [9], the “% increase weight (vs. control)” value came out at 75.1% and the “Mean Wet Weight” value came to 20.1 mg.

For the compound `C#C[C@]1(O)CC[C@H]2[C@@H]3CCc4cc(O)ccc4[C@H]3CC[C@@]21C` [Ethinyl estradiol, 17α-ethinyl estradiol, reference compound], the “% increase weight (vs. control)” value turned out to be 205.7% (Experiment No. 1, 0.5 μg s.c.); 317.3% (Experiment No. 2, 0.5 μg s.c.); 262.1% (Experiment No. 3, 0.5 μg s.c.); 406.4% (Experiment No. 4, 0.5 μg s.c.). Also, the “Mean Wet Weight” value by setting is: (Experiment No. 1, 0.5 μg s.c.) 63.2 mg; (Experiment No. 2, 0.5 μg s.c.) 85.1 mg; (Experiment No. 3, 0.5 μg s.c.) 94.1 mg; (Experiment No. 4, 0.5 μg s.c.) 98.7 mg.

On to `O=C(c1ccc(OCCN2CCCCC2)cc1)c1c(-c2ccc(O)cc2)sc2cc(O)ccc12` [Raloxifene, raloxifene, reference compound], for which the “Agonist effect” value was “statistically increased uterine wet weights at both tested doses” and the “Increase in uterine wet weight over control” value is reported as 75-85%. Under setting [6], the “% increase weight (vs. control)” value is 172.4% and the “Mean Wet Weight” value came out at 46.2 mg. Moreover, under setting [9], the “% increase weight (vs. control)” value worked out at 145.8% and the “Mean Wet Weight” value worked out at 39.1 mg. Also, under setting [10], the “% increase weight (vs. control)” value amounted to 185.2% and the “Mean Wet Weight” value was determined as 45.0 mg. Besides, under setting [11], the “% increase weight (vs. control)” value amounted to 175.9% and the “Mean Wet Weight” value worked out at 42.7 mg.

As to `Cc1c(-c2ccc(O)cc2)n(Cc2ccc(OCCN3CCCCCC3)cc2)c2ccc(O)cc12` [TSE-424, 1-[4-(2-Azepan-1yl-ethoxy)-benzyl]-2-(4-hydroxy-phenyl)-3-methyl-1H-indol-5-ol], the “Effect on ethinyl estradiol induced uterine wet weight increase (in words)” value was “reduced ethinyl estradiol induced wet weight increases to control values; also recorded: less than control values”, the “Effect on raloxifene induced uterine stimulation (in words)” value is given as “antagonized the uterine stimulation; also recorded: reduced the increased wet weight stimulated by raloxifene to the highest increase seen with TSE-424 alone”, the “Agonist effect” value is “neither ERA-923 nor TSE-424 statistically increased uterine wet weight; also recorded: neither ERA-923 (Experiment No.1) nor TSE-424 (Experiment No. 3) treatments resulted in a statistical increase in uterine wet weight” and the “Increase in uterine wet weight over control” value was 35%. Also, under setting [12], the “% increase weight (vs. control)” value is 92.4% and the “Mean Wet Weight” value worked out at 33.2 mg. Also, under setting [13], the “% increase weight (vs. control)” value came to 77.7% and the “Mean Wet Weight” value was 27.9 mg. Besides, under setting [14], the “% increase weight (vs. control)” value amounted to 81.9% and the “Mean Wet Weight” value was 29.4 mg. Further, under setting [15], the “% increase weight (vs. control)” value is listed as 170.4% and the “Mean Wet Weight” value stood at 41.4 mg. Under setting [16], the “% increase weight (vs. control)” value is recorded as 142% and the “Mean Wet Weight” value amounted to 34.5 mg. For the same compound, under setting [10], the “% increase weight (vs. control)” value is listed as 135.0% and the “Mean Wet Weight” value is 32.7 mg. Moreover, under setting [17], the “% increase weight (vs. control)” value was 139.3% and the “Mean Wet Weight” value was found to be 33.8 mg. Also, under setting [18], the “% increase weight (vs. control)” value was 136.5% and the “Mean Wet Weight” value was found to be 33.2 mg. Also, under setting [11], the “% increase weight (vs. control)” value stood at 109.4% and the “Mean Wet Weight” value was 26.6 mg.
